{"source": "patent US9878036B2", "about": "“Immunomodulatory compositions comprising a polymer matrix and an oil phase” (Sigmoid Pharma Limited, priority 2009, dated 2018)", "system": "BALB/c mice", "conditions": "mouse, in vivo, po"}
{"substance": "ovalbumin alone in solution: model antigen ovalbumin (200 μg/mouse) in bicarbonate buffer, oral comparator", "values": [{"measurement": "OVA-specific IgG antibodies in sera", "value": "variable IgG antibody responses"}]}
